Test results: US10188633B2, “Identification of small molecules that facilitate therapeutic exon skipping” (The Regents of the University of California, priority 2011, dated 2019)
Values joined by “and” are separate entries in the source; they are usually repeats but may differ in a detail not shown here. Equal entries are not always repeated. Where two headings read alike, the source gives them in different places.

Tested on: human DMD exon 50 GFP based reporter
Assay: BioMol high throughput screen in Ex50-GFP reporter C2C12 myoblasts, with or without AON6
Format: cell-based, mouse
Settings: for Average Fluorescence (n = 3): average of 3 replicate plates
From the text: Small molecule libraries were screened for exon skipping promoting activity in C2C12 myoblasts expressing a human DMD exon 50 GFP based reporter. […] In the reporter cells, successful skipping of DMD exon 50 creates in-frame GFP expression. Number of cells that were fluorescing was quantified using a high content cell imager in 384 well plate format. Fluorescence was normalized by subtracting the average fluorescence value of the carrier (DMSO) controls. Fluorescence readouts are plotted for the BioMol library screen both with (+AO) and without (−AO) from Source Plate 1 (containing the Orphan Ligand, Ion Channel, Enzyme Inhibitor, and Endocannabanoid libraries, n=300). Each point for the DMSO controls, all compounds, and the Top 5% from Source Plate 1 (n=15) represents the average normalized fluorescence of 6 replicates in the −AO screen and 3 replicates in the +AO screen. […] Individual points for dantrolene are plotted with the bold horizontal line indicating the median. The short horizontal lines interspersed among the data points indicate 1, 2, and 3 standard deviations away from the DMSO treatment mean fluorescence.
In contrast to prior screens aimed at identifying small molecules which impact exon skipping, our screen is unique at least because it relies on robust quantitation of a skipping reporter in the context of a muscle lineage cell in the presence and absence of suboptimal AO. These screens were performed using a mouse muscle cell line (C2C12) expressing a human DMD exon 50 GFP based reporter selected to minimize experimental variation and sensitivity in the context of an automated and quantitative fluorescent scanning system.
AO was added prior to small molecule incubation in an effort to identify molecules that facilitate AO skipping rather than AO delivery. The fluorescence induced by each compound was normalized to a vehicle controls per plate to correct for plate to plate variability. Fluorescence was averaged across replicate plates (n=6 without AO screen, n=3 with AO screen). Compounds were rank ordered based on average intensity of fluorescence and difference between the without AO and with AO screen (FIG. 1 and Table 2).
A stable clone was generated from C2C12 cells transfected with a human exon 50 DMD GFP reporter (ex50GFP) that has been previously described. Ex50GFP reporter myoblasts were seeded into uncoated 384 well plates and were incubated for 4 hours either with or without 300 nM of 2′-O-methyl phosphorothioate AON6 [5′[…] 3′ (SEQ ID NO:1)] targeting the human exon 50 splice donor site. Cells were transfected with AON6 using the FUGENE (Roche) transfection reagent per manufacturer's instructions. Following AON6 incubation, each component of the BioMol library (n=503) was screened at 10 uM concentration with a final concentration of the DMSO carrier being 1%. Forty-eight hours later fluorescence was measured using the MicroXpress high content imager and analyzed using MetaXpress. Immediately preceding imaging, DNA was stained with Hoescht for 30 min. The BioMol screen without AO (−AO) was performed in 6 replicates, and the with AO (+AO) screen was performed in 3 replicates. For the screen analysis raw fluorescence values were normalized to carrier controls present on each plate by subtracting the values. Negative fluorescence values were set to 0. The data from each compound were averaged from all replicates. For secondary screening by 12 or 16 point dose response, Ex50GFP myoblasts or C2C12 cells without the reporter were seeded on uncoated 384 well plates. A sub-optimal dose of AON6 targeting DMD exon 50 was added for 4 hours.

[1] = Without AON6 screen, compound 10 uM, 48 h, normalized to DMSO carrier controls
[2] = Without AON6 screen, compound 10 uM, average of 6 replicate plates
[3] = With AON6 screen, compound 10 uM, 48 h, fluorescence normalized by subtracting DMSO carrier controls
[4] = With AON6 screen, compound 10 uM, 48 h, normalized to DMSO carrier controls
[5] = With AON6 screen, compound 10 uM

Molecule: COc1ccc2cc1Oc1ccc(cc1)C[C@H]1c3cc(c(OC)cc3CCN1C)Oc1c(OC)c(OC)cc3c1[C@H](C2)N(C)CC3 [TETRANDRINE]
- Fluorescence Plate 1 [1]: 3.15
- Fluorescence Plate 2 [1]: 2.41
- Fluorescence Plate 3 [1]: 5.39
- Fluorescence Plate 4 [1]: 4.64
- Fluorescence Plate 5 [1]: 5.03
- Fluorescence Plate 6 [1]: 6.64
- Average Fluorescence (n = 6) [2]: 4.54

Molecule: N#C/C(=C/c1ccc(O)c(O)c1)C(=O)NCc1ccccc1 [AG-490]
- Fluorescence Plate 1 [3]: 7.17
- Fluorescence Plate 2 [4]: 30.27
- Fluorescence Plate 3 [4]: 13.54
- Average Fluorescence (n = 3) [5]: 16.99

Molecule: O=Cc1c2c(cc3c1=Nc1ccccc1-3)=Nc1ccccc1-2 [6-FORMYLINDOLO [3,2-b] CARBAZOLE]
- Fluorescence Plate 1 [3]: 30.05
- Fluorescence Plate 2 [4]: 30.08
- Fluorescence Plate 3 [4]: 32.59
- Average Fluorescence (n = 3) [5]: 30.90

Molecule: N#CC(=C(N)Sc1ccccc1N)C(C#N)=C(N)Sc1ccccc1N [U-0126]
- Fluorescence Plate 1 [3]: 17.87
- Fluorescence Plate 2 [4]: 35.65
- Fluorescence Plate 3 [4]: 16.65
- Average Fluorescence (n = 3) [5]: 23.39

Molecule: COc1ccc2c3c([nH]c2c1)C(C)=NCC3.Cl [HARMALINE HCl]
- Fluorescence Plate 1 [3]: 15.00
- Fluorescence Plate 2 [4]: 42.55
- Fluorescence Plate 3 [4]: 0.22
- Average Fluorescence (n = 3) [5]: 19.26
- Fluorescence Plate 1 [1]: 31.97
- Fluorescence Plate 2 [1]: 27.56
- Fluorescence Plate 3 [1]: 27.06
- Fluorescence Plate 4 [1]: 22.50
- Fluorescence Plate 5 [1]: 16.09
- Fluorescence Plate 6 [1]: 19.75
- Average Fluorescence (n = 6) [2]: 24.15

Molecule: CCCCCCCC/C=C\CCCCCCCC(=O)NCCc1ccc(O)c(O)c1 [Oleoyl dopamine]
- Fluorescence Plate 1 [1]: 2.78
- Fluorescence Plate 2 [1]: 1.51
- Fluorescence Plate 3 [1]: 12.34
- Fluorescence Plate 4 [1]: 3.21
- Fluorescence Plate 5 [1]: 3.30
- Fluorescence Plate 6 [1]: 1.32
- Average Fluorescence (n = 6) [2]: 4.08

Molecule: CC(N/C(=N\C#N)Nc1ccncc1)C(C)(C)C (stereo not drawn)
- Fluorescence Plate 1 [3]: 15.64
- Fluorescence Plate 2 [4]: 27.20
- Fluorescence Plate 3 [4]: 11.56
- Average Fluorescence (n = 3) [5]: 18.13

Molecule: CCN(CC)CCNC(=O)c1ccc(N)cc1 [PROCAINAMIDE]
- Fluorescence Plate 1 [3]: 13.80
- Fluorescence Plate 2 [4]: 19.66
- Fluorescence Plate 3 [4]: 20.81
- Average Fluorescence (n = 3) [5]: 18.09

Molecule: Cn1cc(C2=C(c3cn(CCCSC(=N)N)c4ccccc34)C(=O)NC2=O)c2ccccc21 [Ro 31-8220]
- Fluorescence Plate 1 [1]: 17.56
- Fluorescence Plate 2 [1]: 50.61
- Fluorescence Plate 3 [1]: 46.79
- Fluorescence Plate 4 [1]: 38.49
- Fluorescence Plate 5 [1]: 31.21
- Fluorescence Plate 6 [1]: 34.94
- Average Fluorescence (n = 6) [2]: 36.60

Molecule: Nc1ncnc2c1c(I)cn2[C@@H]1O[C@H](CO)C(O)C1O (stereo partly drawn) [5-IODOTUBERCIDIN]
- Fluorescence Plate 1 [1]: -0.41
- Fluorescence Plate 2 [1]: 6.65
- Fluorescence Plate 3 [1]: 9.13
- Fluorescence Plate 4 [1]: 18.27
- Fluorescence Plate 5 [1]: 30.70
- Fluorescence Plate 6 [1]: 6.10
- Average Fluorescence (n = 6) [2]: 11.74

Molecule: C[C@@]12C(=O)OC(=O)[C@]1(C)[C@H]1CC[C@@H]2O1 [CANTHARIDIN]
- Fluorescence Plate 1 [1]: 11.40
- Fluorescence Plate 2 [1]: −1.04
- Fluorescence Plate 3 [1]: 0.63
- Fluorescence Plate 4 [1]: 5.55
- Fluorescence Plate 5 [1]: 4.34
- Fluorescence Plate 6 [1]: 4.45
- Average Fluorescence (n = 6) [2]: 4.22

Molecule: COc1cc(/C=C(\C#N)C(N)=O)cc(CSc2nc3ccccc3s2)c1O [AG-825]
- Fluorescence Plate 1 [3]: 17.24
- Fluorescence Plate 2 [4]: 23.38
- Fluorescence Plate 3 [4]: 11.53
- Average Fluorescence (n = 3) [5]: 17.38

Molecule: CCCCC/C=C\C/C=C\C/C=C\C/C=C\CCCCCC(=O)NCCc1ccc(O)c(O)c1 [Docosatetra-7Z,10Z,13Z,16Z-enoyl dopamine]
- Average Fluorescence (n = 6): 4.71
- Fluorescence Plate 1: −1.65
- Fluorescence Plate 2: 5.21
- Fluorescence Plate 3: 7.47
- Fluorescence Plate 4: 2.30
- Fluorescence Plate 5: 9.50
- Fluorescence Plate 6: 5.44

Molecule: N=C(NCc1ccc(Cl)c(Cl)c1)NC(=O)c1nc(Cl)c(N)nc1N [DICHLOROBENZAMIL]
- Fluorescence Plate 1 [1]: 22.19
- Fluorescence Plate 2 [1]: 15.01
- Fluorescence Plate 3 [1]: 13.67
- Fluorescence Plate 4 [1]: 4.78
- Fluorescence Plate 5 [1]: 7.44
- Fluorescence Plate 6 [1]: 6.66
- Average Fluorescence (n = 6) [2]: 11.63

Molecule: N#C/C(=C\c1ccc(O)c(O)c1)C(N)=O [TYRPHOSTIN 46]
- Fluorescence Plate 1 [3]: 8.61
- Fluorescence Plate 2 [4]: 30.70
- Fluorescence Plate 3 [4]: 14.09
- Average Fluorescence (n = 3) [5]: 17.80

Molecule: CC(C)(C)c1cc(/C=C(\C#N)C(N)=S)cc(C(C)(C)C)c1O [AG-879]
- Fluorescence Plate 1 [1]: 1.23
- Fluorescence Plate 2 [1]: 3.24
- Fluorescence Plate 3 [1]: 3.46
- Fluorescence Plate 4 [1]: 6.94
- Fluorescence Plate 5 [1]: 8.93
- Fluorescence Plate 6 [1]: 2.06
- Average Fluorescence (n = 6) [2]: 4.31

Molecule: CC(n1cc(C[C@H](N)C(=O)O)c2ccccc21)n1cc(C[C@H](N)C(=O)O)c2ccccc21
- Fluorescence Plate 1 [3]: 20.72
- Fluorescence Plate 2 [4]: 11.15
- Fluorescence Plate 3 [4]: 22.18
- Average Fluorescence (n = 3) [5]: 18.02

Molecule: COC(=O)C1=C(C)NC(C)=C(C(=O)OCCCN2CCC(c3ccccc3)(c3ccccc3)CC2)[C@H]1c1cccc([N+](=O)[O-])c1 [NIGULDIPINE]
- Average Fluorescence (n = 6): 4.12
- Fluorescence Plate 1: 5.07
- Fluorescence Plate 2: 1.34
- Fluorescence Plate 3: 3.34
- Fluorescence Plate 4: 8.06
- Fluorescence Plate 5: 6.06
- Fluorescence Plate 6: 0.84

Molecule: NCCNS(=O)(=O)c1cccc2cnccc12 [H-9]
- Fluorescence Plate 1 [3]: 18.09
- Fluorescence Plate 2 [4]: 19.17
- Fluorescence Plate 3 [4]: 13.25
- Average Fluorescence (n = 3) [5]: 16.84

Molecule: COC[C@H]1OC(=O)c2coc3c2[C@@]1(C)C1=C(C3=O)[C@@H]2CCC(=O)[C@@]2(C)C[C@H]1OC(C)=O [WORTMANNIN]
- Fluorescence Plate 1 [1]: 4.99
- Fluorescence Plate 2 [1]: 3.07
- Fluorescence Plate 3 [1]: 4.23
- Fluorescence Plate 4 [1]: 5.92
- Fluorescence Plate 5 [1]: 6.44
- Fluorescence Plate 6 [1]: 3.78
- Average Fluorescence (n = 6) [2]: 4.74

Molecule: INDIRUBIN
- Fluorescence Plate 3 [1]: 6.43 and 6.44
- Fluorescence Plate 5 [1]: 3.42 and 6.60
- Average Fluorescence (n = 6) [2]: 17.88 and 8.26
